In patent US20230148005A1, “MACROCYCLIC COMPOUNDS AND USES THEREOF” (THESEUS PHARMACEUTICALS, INC., priority 2020, published 2023):
Where two headings read alike, the source gives them in different places.

Experiments:
EGFR^L858R/T790M/C^797S = EGFR^L858R/T790M/C^797S (Homo sapiens, UniProt P00533, C797S/L858R/T790M); test: in vitro kinase assay (HTRF KinEASE-TK kit), LTC; format: biochemical; settings: kinase inhibition
Source text: (§1) Assays using an in vitro kinase assay kit (HTRF KinEASE-TK kit) can be used to study the inhibitory activity of compounds described herein with respect to EGFR mutants such as EGFR^L858R, EGFR^L58R/T790M, and EGFR^L858R/T790M/C^797S.

EGFR^L58R/T790M = EGFR^L58R/T790M (Homo sapiens, UniProt P00533, L858R/T790M); test: in vitro kinase assay (HTRF KinEASE-TK kit), LT; format: biochemical; settings: kinase inhibition
Sequence of EGFR^L58R/T790M (P00533 25-1210 T790M/L858R): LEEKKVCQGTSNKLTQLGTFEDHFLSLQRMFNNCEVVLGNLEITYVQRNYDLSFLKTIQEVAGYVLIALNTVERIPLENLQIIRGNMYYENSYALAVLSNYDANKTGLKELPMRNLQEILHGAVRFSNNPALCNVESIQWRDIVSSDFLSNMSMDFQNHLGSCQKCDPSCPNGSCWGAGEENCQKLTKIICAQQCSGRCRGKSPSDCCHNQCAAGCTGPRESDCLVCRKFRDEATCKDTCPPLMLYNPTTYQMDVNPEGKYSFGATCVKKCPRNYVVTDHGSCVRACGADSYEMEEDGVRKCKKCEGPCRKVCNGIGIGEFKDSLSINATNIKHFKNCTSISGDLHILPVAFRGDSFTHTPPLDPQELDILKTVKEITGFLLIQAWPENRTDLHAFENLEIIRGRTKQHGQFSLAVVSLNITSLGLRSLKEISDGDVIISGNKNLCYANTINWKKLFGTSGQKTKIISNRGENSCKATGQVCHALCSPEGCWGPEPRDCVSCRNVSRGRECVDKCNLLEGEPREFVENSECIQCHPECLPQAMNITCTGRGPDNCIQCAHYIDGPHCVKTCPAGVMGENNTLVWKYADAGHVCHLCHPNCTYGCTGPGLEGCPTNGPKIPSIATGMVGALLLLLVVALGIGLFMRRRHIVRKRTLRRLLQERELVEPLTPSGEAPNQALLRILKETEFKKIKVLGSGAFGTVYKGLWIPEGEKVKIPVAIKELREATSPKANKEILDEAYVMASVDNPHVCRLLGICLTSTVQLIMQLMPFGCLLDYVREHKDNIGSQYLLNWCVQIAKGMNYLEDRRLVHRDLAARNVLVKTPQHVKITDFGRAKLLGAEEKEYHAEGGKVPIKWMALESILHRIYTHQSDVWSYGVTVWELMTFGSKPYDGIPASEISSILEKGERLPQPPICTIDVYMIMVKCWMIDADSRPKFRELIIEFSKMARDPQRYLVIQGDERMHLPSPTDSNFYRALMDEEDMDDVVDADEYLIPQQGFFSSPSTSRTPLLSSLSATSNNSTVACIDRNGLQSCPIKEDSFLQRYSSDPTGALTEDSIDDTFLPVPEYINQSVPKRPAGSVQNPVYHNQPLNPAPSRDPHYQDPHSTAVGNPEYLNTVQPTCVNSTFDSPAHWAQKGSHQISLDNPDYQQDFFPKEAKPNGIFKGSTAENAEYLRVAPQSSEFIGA
Source text: as §1

EGFR^L858R = EGFR^L858R (Homo sapiens, UniProt P00533, L858R); test: in vitro kinase assay (HTRF KinEASE-TK kit), L; format: biochemical; settings: kinase inhibition
Source text: as §1

[1] = biological target: Ba/F3 EGFR-Del19/T790M/C797S (Homo sapiens, UniProt P00533, T790M/C797S, cells depend on it, form not given); test: Ba/F3 viability assay (CellTiter-Glo), DTC; format: cell-based; settings: anti-proliferation, read-out: BaF3 DTC IC50
Sequence of Ba/F3 EGFR-Del19/T790M/C797S (P00533 with tags, fused parts or gaps DEL746-750/T790M/C797S, form open): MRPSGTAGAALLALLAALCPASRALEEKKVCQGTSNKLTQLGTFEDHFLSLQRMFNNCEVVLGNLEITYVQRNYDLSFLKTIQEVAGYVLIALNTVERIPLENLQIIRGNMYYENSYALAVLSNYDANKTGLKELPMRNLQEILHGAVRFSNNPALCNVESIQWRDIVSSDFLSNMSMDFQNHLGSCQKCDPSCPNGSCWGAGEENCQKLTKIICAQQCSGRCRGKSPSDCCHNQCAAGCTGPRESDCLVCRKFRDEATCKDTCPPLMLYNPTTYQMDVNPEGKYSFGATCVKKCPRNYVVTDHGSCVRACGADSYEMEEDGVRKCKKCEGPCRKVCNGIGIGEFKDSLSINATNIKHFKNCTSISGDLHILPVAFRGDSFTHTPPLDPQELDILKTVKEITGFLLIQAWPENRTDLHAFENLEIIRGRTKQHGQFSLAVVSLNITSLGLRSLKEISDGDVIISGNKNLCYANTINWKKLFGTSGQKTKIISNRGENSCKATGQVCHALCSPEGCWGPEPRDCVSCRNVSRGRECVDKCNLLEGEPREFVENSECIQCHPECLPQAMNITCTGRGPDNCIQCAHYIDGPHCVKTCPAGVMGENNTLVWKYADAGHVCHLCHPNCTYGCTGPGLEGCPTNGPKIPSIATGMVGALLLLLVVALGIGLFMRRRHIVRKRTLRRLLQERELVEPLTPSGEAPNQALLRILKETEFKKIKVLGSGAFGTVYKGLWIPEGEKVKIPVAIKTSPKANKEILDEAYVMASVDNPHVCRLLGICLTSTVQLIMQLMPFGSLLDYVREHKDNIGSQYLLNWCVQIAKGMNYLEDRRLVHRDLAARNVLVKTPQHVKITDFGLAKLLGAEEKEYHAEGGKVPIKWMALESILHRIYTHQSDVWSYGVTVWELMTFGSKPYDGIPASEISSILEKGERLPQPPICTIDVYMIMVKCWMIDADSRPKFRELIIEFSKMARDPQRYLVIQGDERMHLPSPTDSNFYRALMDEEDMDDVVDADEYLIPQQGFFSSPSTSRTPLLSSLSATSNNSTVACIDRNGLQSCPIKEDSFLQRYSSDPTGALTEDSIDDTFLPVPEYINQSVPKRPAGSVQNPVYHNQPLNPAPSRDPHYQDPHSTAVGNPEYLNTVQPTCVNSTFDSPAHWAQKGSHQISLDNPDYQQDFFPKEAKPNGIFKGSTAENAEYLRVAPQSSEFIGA
Procedure, shortened: (§2)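 Compound effects on proliferation were gauged by measuring cell viability in each engineered line and in the parental line.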

Ba/F3 EGFR-Del19/T790M = Ba/F3 EGFR-Del19/T790M (Homo sapiens, UniProt P00533, T790M, cells depend on it, form not given); test: Ba/F3 viability assay (CellTiter-Glo), DT; format: cell-based; settings: anti-proliferation, read-out: BaF3 DT IC50
Sequence of Ba/F3 EGFR-Del19/T790M (P00533 with tags, fused parts or gaps DEL746-750/T790M, form open): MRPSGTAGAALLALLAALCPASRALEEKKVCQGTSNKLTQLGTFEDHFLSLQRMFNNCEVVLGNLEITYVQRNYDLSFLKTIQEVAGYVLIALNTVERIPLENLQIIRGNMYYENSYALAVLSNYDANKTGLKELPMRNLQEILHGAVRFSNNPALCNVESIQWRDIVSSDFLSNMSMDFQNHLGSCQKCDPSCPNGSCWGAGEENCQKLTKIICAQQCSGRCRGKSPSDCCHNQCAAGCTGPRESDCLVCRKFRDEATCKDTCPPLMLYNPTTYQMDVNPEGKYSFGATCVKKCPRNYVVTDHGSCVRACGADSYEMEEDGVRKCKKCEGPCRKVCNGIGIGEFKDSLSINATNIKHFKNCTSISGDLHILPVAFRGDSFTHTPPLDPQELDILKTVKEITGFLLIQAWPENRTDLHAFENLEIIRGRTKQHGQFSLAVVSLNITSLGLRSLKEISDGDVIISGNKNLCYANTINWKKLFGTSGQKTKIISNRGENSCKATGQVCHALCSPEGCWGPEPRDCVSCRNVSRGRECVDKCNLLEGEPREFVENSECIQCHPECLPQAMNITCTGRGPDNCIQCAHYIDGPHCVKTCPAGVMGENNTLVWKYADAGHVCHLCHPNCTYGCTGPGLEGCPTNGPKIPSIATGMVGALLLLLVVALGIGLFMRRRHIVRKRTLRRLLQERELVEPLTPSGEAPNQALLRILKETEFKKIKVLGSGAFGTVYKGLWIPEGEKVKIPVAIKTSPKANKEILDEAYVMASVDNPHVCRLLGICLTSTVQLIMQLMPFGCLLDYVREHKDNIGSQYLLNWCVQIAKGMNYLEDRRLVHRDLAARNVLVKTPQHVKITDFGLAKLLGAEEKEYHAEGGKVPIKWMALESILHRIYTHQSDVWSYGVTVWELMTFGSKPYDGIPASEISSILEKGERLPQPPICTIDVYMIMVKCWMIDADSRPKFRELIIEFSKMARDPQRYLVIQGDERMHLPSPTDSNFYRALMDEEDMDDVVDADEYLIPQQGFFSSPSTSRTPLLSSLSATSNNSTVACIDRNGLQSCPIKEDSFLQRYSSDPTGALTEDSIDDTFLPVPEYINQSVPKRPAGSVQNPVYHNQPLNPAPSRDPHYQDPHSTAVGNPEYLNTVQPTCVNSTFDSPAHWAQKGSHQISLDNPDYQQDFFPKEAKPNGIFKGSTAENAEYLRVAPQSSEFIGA
Procedure, shortened: as §2

Ba/F3 EGFR-Del19/C797S = Ba/F3 EGFR-Del19/C797S (Homo sapiens, UniProt P00533, C797S, cells depend on it, form not given); test: Ba/F3 viability assay (CellTiter-Glo), DC; format: cell-based; settings: anti-proliferation, read-out: BaF3 DC IC50
Sequence of Ba/F3 EGFR-Del19/C797S (P00533 with tags, fused parts or gaps DEL746-750/C797S, form open): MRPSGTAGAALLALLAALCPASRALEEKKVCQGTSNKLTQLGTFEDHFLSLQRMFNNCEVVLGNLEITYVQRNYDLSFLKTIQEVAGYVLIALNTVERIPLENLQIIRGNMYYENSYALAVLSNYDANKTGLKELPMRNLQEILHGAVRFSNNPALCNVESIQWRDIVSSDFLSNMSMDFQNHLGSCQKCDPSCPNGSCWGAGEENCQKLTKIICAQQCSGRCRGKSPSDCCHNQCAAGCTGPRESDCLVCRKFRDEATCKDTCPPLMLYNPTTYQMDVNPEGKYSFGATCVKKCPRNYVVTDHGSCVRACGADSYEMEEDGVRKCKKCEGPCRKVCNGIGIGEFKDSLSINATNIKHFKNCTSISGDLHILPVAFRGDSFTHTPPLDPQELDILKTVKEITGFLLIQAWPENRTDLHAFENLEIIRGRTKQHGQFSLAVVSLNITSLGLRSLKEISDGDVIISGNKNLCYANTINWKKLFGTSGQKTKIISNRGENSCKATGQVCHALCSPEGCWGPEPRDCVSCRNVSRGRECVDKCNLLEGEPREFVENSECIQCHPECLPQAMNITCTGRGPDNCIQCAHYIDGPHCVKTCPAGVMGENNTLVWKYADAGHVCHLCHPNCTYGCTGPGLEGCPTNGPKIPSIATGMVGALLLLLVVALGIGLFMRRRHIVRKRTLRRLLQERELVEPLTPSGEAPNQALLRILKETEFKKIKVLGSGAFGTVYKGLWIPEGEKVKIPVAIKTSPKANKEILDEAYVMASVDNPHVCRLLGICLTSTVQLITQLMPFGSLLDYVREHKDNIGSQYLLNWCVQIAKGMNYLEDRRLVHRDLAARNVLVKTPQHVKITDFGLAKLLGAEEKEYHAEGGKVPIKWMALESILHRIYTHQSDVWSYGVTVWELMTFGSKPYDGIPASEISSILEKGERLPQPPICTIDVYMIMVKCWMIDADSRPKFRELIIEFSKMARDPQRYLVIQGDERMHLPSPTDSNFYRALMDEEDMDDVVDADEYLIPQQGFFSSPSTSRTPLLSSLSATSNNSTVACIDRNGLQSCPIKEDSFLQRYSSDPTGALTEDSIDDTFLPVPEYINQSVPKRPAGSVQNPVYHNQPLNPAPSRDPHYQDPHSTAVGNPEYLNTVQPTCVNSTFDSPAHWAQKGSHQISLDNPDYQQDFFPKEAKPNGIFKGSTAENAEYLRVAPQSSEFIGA
Procedure, shortened: as §2

Ba/F3 Parental = test: Ba/F3 viability assay (CellTiter-Glo), parental; format: cell-based
Procedure, shortened: as §2

[2] = Mus musculus, BaF3, anti-proliferation

SMILES | IC50 (EGFR^L858R/T790M/C^797S) [µM] | IC50 (EGFR^L58R/T790M) [µM] | IC50 (EGFR^L858R) [µM] | GI50 [1] [µM] | GI50 (Ba/F3 EGFR-Del19/T790M) [µM] | GI50 (Ba/F3 EGFR-Del19/C797S) [µM] | IC50 (Ba/F3 Parental; [2]) [µM] | IC50 (Ba/F3 Parental; anti-proliferation, read-out: BaF3 parental IC50) [µM]
COC(=O)C1CCCN1c1nn2c3cc(ncc13)Nc1ccnc(n1)-c1cnn(C)c1OCCC2 (centres unmarked) [(61)] | 0.01 to 0.1 | < 0.01 | 0.1 to 1 | 0.1 to 1 | 0.1 to 1 | 0.1 to 1 | ≥ 1 | –
C[C@H]1CCOc2c(cnn2C)-c2nccc(n2)Nc2cc3c(cn2)c(N2CCN(C4CC4)CC2)nn31 [(97)] | 0.01 to 0.1 | < 0.01 | 0.1 to 1 | 0.1 to 1 | 0.1 to 1 | 0.1 to 1 | ≥ 1 | –
C[C@H]1CCOc2c(cnn2C)-c2nccc(n2)Nc2cc3c(cn2)c(N2CCC2)nn31 [(70)] | < 0.01 | < 0.01 | < 0.01 | 0.01 to 0.1 | < 0.01 | 0.01 to 0.1 | – | 0.1 to 1
CC(C)N1CCN(Cc2csc(-c3nn4c5cc(ncc35)Nc3ccnc(n3)-c3cnn(C)c3OCC[C@@H]4C)n2)CC1 [(118)] | < 0.01 | < 0.01 | 0.01 to 0.1 | 0.01 to 0.1 | 0.1 to 1 | 0.1 to 1 | ≥ 1 | –
CC(C)n1cc(-c2nn3c4cc(ncc24)Nc2ccnc(n2)-c2cnn(C)c2OCC[C@@H]3C)cc1CN1CCOCC1 [(151)] | < 0.01 | < 0.01 | < 0.01 | < 0.01 | < 0.01 | 0.01 to 0.1 | 0.1 to 1 | –
C[C@H]1CCOc2c(cnn2C)-c2nccc(n2)Nc2cc3c(cn2)c(-c2ncc(CN4CCOCC4)s2)nn31 [(143)] | < 0.01 | < 0.01 | 0.01 to 0.1 | 0.01 to 0.1 | 0.01 to 0.1 | 0.01 to 0.1 | ≥ 1 | –
C[C@H]1CCOc2c(cnn2C)-c2nccc(n2)Nc2cc3c(cn2)c(-c2csc(CN4CCN(C)CC4)n2)nn31 [(103)] | < 0.01 | < 0.01 | < 0.01 | < 0.01 | < 0.01 | 0.01 to 0.1 | 0.1 to 1 | –
CCn1cc(CN2CCN(C)CC2)cc1-c1nn2c3cc(ncc13)Nc1ccnc(n1)-c1cnn(C)c1OCCC2C (centres unmarked) [(82)] | < 0.01 | < 0.01 | 0.1 to 1 | 0.01 to 0.1 | 0.01 to 0.1 | 0.01 to 0.1 | 0.01 to 0.1 | –
C[C@H]1CCOc2c(cnn2C)-c2nccc(n2)Nc2cc3c(cn2)c(-c2cc(CN(C)C)ccn2)nn31 [(183)] | < 0.01 | < 0.01 | < 0.01 | < 0.01 | 0.01 to 0.1 | 0.01 to 0.1 | 0.1 to 1 | –
C[C@H]1CCOc2c(cnn2C)-c2nccc(n2)Nc2cc3c(cn2)c(-c2cc(CN4CCN(C)CC4)n(C)n2)nn31 [(95)] | < 0.01 | < 0.01 | < 0.01 | 0.01 to 0.1 | 0.01 to 0.1 | 0.01 to 0.1 | 0.1 to 1 | –
CCN1CCc2c(cc(-c3nn4c5cc(ncc35)Nc3ccnc(n3)-c3cnn(C)c3OCC[C@@H]4C)n2C)C1C (some centres unmarked) [(161)] | < 0.01 | < 0.01 | < 0.01 | < 0.01 | < 0.01 | 0.01 to 0.1 | 0.1 to 1 | –
Cc1nc(-c2nn3c4cc(ncc24)Nc2ccnc(n2)-c2cnn(C)c2OCC[C@@H]3C)sc1CN(C)C [(171)] | < 0.01 | < 0.01 | < 0.01 | 0.01 to 0.1 | 0.01 to 0.1 | 0.01 to 0.1 | 0.1 to 1 | –

Further lines, with some results ahead:

IC50 (EGFR^L858R/T790M/C^797S) [µM] | IC50 (EGFR^L58R/T790M) [µM] | IC50 (EGFR^L858R) [µM] | SMILES | GI50 [1] [µM] | GI50 (Ba/F3 EGFR-Del19/T790M) [µM] | GI50 (Ba/F3 EGFR-Del19/C797S) [µM] | IC50 (Ba/F3 Parental; [2]) [µM] | IC50 (Ba/F3 Parental; anti-proliferation, read-out: BaF3 parental IC50) [µM]
< 0.01 | < 0.01 | 0.01 to 0.1 | CC1CCOc2c(cnn2C)-c2nccc(n2)Nc2cc3c(cn2)c(-c2ccn(C)n2)nn31 (centres unmarked) [(69)] | 0.01 to 0.1 | 0.01 to 0.1 | 0.01 to 0.1 | ≥ 1 | –
< 0.01 | < 0.01 | < 0.01 | CC1CCOc2ccncc2-c2nccc(n2)Nc2cc3c(cn2)c(N2CCC2)nn31 (centres unmarked) [(14), 20-(azetidin-1-yl)-17-methyl-14-oxa-2,6,10,18,19,23,26-heptazapentacyclo[16.5.2.13,7.08,13.021,25]hexacosa-1(23),3,5,7(26),8(13),9,11,19,21,24-decaene] | < 0.01 | < 0.01 | < 0.01 | 0.01 to 0.1 | –
< 0.01 | < 0.01 | < 0.01 | C[C@H]1CCOc2c(cnn2C)-c2nccc(n2)Nc2cc3c(cn2)c(-c2ccc(CN(C)C)cc2)nn31 [(176)] | < 0.01 | < 0.01 | 0.01 to 0.1 | 0.1 to 1 | –
< 0.01 | < 0.01 | < 0.01 | C[C@H]1CCOc2c(cnn2C)-c2nccc(n2)Nc2cc3c(cn2)c(-c2cccc(CN4CCN(C)CC4)c2)nn31 [(98)] | 0.01 to 0.1 | 0.01 to 0.1 | 0.01 to 0.1 | 0.1 to 1 | –
< 0.01 | < 0.01 | < 0.01 | C[C@H]1CCOc2c(cnn2C)-c2nccc(n2)Nc2cc3c(cn2)c(-c2ccc(F)c(OCCN(C)C)c2)nn31 [(131)] | < 0.01 | < 0.01 | < 0.01 | 0.1 to 1 | –
< 0.01 | < 0.01 | < 0.01 | C[C@H]1CCOc2c(cnn2C)-c2nccc(n2)Nc2cc3c(cn2)c(-c2cccc(N4CC[C@@H](N(C)C)C4)c2)nn31 [(166)] | < 0.01 | < 0.01 | < 0.01 | 0.1 to 1 | –
< 0.01 | < 0.01 | < 0.01 | C[C@H]1CCOc2c(cnn2C)-c2nccc(n2)Nc2cc3c(cn2)c(-c2ccc(CN4CC[C@H](N(C)C)C4)n2C)nn31 [(187)] | < 0.01 | < 0.01 | < 0.01 | 0.1 to 1 | –
< 0.01 | < 0.01 | < 0.01 | Cc1cc(OCCN(C)C)cc(-c2nn3c4cc(ncc24)Nc2ccnc(n2)-c2cnn(C)c2OCC[C@@H]3C)c1 [(134)] | 0.01 to 0.1 | 0.01 to 0.1 | 0.01 to 0.1 | 0.1 to 1 | –
< 0.01 | < 0.01 | 0.01 to 0.1 | C[C@H]1CCOc2c(cnn2C)-c2nccc(n2)Nc2cc3c(cn2)c(-c2cn(C)cn2)nn31 [(114)] | 0.01 to 0.1 | 0.01 to 0.1 | 0.01 to 0.1 | 0.1 to 1 | –
< 0.01 | < 0.01 | < 0.01 | C[C@H]1CCOc2c(cnn2C)-c2nccc(n2)Nc2cc3c(cn2)c(-c2cc4c(n2C)CCCN(C)C4)nn31 [(185)] | 0.01 to 0.1 | 0.01 to 0.1 | 0.01 to 0.1 | 0.1 to 1 | –
< 0.01 | < 0.01 | 0.01 to 0.1 | Cc1nn(CCC(C)(C)O)cc1-c1nn2c3cc(ncc13)Nc1ccnc(n1)-c1cnn(C)c1OCCCC2C (centres unmarked) [(89)] | 0.01 to 0.1 | 0.01 to 0.1 | 0.01 to 0.1 | 0.1 to 1 | –
< 0.01 | < 0.01 | < 0.01 | C[C@H]1CCOc2c(cnn2C)-c2nccc(n2)Nc2cc3c(cn2)c(-c2ccc(CN(C)C)n2C)nn31 [(127)] | < 0.01 | < 0.01 | < 0.01 | 0.1 to 1 | –
< 0.01 | < 0.01 | 0.01 to 0.1 | CC1CCOc2c(cnn2C)-c2nccc(n2)Nc2cc3c(cn2)c(N2CC(C(C)(C)O)C2)nn31 (centres unmarked) [(8)] | 0.01 to 0.1 | 0.01 to 0.1 | 0.01 to 0.1 | 0.1 to 1 | –
< 0.01 | < 0.01 | < 0.01 | CCCN1CCN(Cc2cnc(-c3nn4c5cc(ncc35)Nc3ccnc(n3)-c3cnn(C)c3OCC[C@@H]4C)s2)CC1 [(142)] | < 0.01 | 0.01 to 0.1 | 0.01 to 0.1 | 0.1 to 1 | –
< 0.01 | < 0.01 | 0.01 to 0.1 | C[C@H]1CCOc2c(cnn2C)-c2nccc(n2)Nc2cc3c(cn2)c(N2CCOCC2)nn31 [(104)] | 0.01 to 0.1 | 0.01 to 0.1 | 0.01 to 0.1 | 0.1 to 1 | –
< 0.01 | < 0.01 | 0.01 to 0.1 | CCn1c(CN2CCN(C3CC3)CC2)ccc1-c1nn2c3cc(ncc13)Nc1ccnc(n1)-c1cnn(C)c1OCC[C@@H]2C [(125)] | < 0.01 | < 0.01 | 0.01 to 0.1 | 0.1 to 1 | –
< 0.01 | < 0.01 | < 0.01 | CCCN(C)Cc1ccc(-c2nn3c4cc(ncc24)Nc2ccnc(n2)-c2cnn(C)c2OCC[C@@H]3C)n1C [(138)] | < 0.01 | < 0.01 | < 0.01 | 0.1 to 1 | –
